According to ChEMBL document CHEMBL4152303, “Structure-activity relationships of imidazothiazinones and analogs as antagonists of the cannabinoid-activated orphan G protein-coupled receptor GPR18” (Eur J Med Chem, 2018):

Legend:
Cannabinoid receptor 2 = Cannabinoid receptor 2 (Homo sapiens, UniProt P34972); assay: Displacement of [3H]CP55940 from recombinant human CB2 receptor expressed in CHO cell membranes after 2 hrs by liquid scintillation counting method; conditions: for inhibition: concentration not given here
Sequence of Cannabinoid receptor 2 (P34972 whole entry): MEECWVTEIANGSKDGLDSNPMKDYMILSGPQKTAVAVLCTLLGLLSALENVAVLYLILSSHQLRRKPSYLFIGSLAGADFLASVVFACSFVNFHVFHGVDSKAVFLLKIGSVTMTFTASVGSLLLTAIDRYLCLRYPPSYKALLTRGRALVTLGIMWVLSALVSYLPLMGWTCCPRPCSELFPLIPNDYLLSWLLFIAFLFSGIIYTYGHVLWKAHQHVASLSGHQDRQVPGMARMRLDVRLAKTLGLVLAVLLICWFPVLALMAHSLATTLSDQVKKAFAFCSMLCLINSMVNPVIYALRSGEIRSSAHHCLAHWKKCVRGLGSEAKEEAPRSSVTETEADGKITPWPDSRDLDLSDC

[1] = target: T1, N-arachidonyl glycine receptor (Homo sapiens, UniProt Q14330); assay: (§1) Antagonist activity at recombinant human GPR18 expressed in CHO cells assessed as inhibition of delta9-THC-induced beta-arrestin recruitment preincubated for 60 mins followed by delta9-THC addition for 90 mins measured for 1 sec by luminescence assay; type: functional, cell-based
T1 sequence (Q14330 whole entry): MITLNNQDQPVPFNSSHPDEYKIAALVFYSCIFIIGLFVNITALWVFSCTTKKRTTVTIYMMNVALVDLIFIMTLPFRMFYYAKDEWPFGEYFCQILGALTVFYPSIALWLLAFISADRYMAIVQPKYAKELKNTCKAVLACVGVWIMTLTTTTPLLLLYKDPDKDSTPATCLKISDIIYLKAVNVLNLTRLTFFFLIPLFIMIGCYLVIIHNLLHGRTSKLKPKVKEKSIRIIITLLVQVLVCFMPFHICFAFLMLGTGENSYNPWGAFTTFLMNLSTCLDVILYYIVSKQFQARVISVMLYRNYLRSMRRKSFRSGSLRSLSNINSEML

[2] = target: T2, N-arachidonyl glycine receptor (Homo sapiens) (UniProt Q14330); assay: as §1; type: functional, cell-based
T2 sequence (whole entry): T1 sequence (Q14330 whole entry)

[3] = target: T3, G-protein coupled receptor 55 (Homo sapiens, UniProt Q9Y2T6); assay: Antagonist activity at recombinant human GPR55 expressed in CHO cells assessed as inhibition of lysophosphatidylinositol-induced beta-arrestin recruitment preincubated for 60 mins followed by lysophosphatidylinositol addition for 90 mins measured for 1 sec by luminescence assay; type: functional, cell-based
T3 sequence (Q9Y2T6 whole entry): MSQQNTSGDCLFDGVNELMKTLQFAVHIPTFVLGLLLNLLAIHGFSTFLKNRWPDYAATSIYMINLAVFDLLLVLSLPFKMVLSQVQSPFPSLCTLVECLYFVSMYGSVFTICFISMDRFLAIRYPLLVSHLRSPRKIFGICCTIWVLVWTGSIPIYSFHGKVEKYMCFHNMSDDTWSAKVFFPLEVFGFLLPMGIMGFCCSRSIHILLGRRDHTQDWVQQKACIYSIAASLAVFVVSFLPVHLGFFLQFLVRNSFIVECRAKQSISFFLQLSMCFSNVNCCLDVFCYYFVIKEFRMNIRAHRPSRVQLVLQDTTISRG

[4] = target: T3, G-protein coupled receptor 55; assay: Agonist activity at recombinant human GPR55 expressed in CHO cells assessed as increase in beta-arrestin recruitment incubated for 60 mins measured for 1 sec by luminescence assay; type: functional, cell-based
[5] = target: T1, N-arachidonyl glycine receptor; assay: (§2) Agonist activity at recombinant human GPR18 expressed in CHO cells assessed as increase in beta-arrestin recruitment incubated for 60 mins measured for 1 sec by luminescence assay; type: functional, cell-based
[6] = target: T2, N-arachidonyl glycine receptor (Homo sapiens); assay: as §2; type: functional, cell-based
Cannabinoid receptor 1 = Cannabinoid receptor 1 (Homo sapiens, UniProt P21554); assay: Displacement of [3H]CP55940 from recombinant human CB1 receptor expressed in CHO cell membranes after 2 hrs by liquid scintillation counting method; conditions: for inhibition: concentration not given here
Sequence of Cannabinoid receptor 1 (P21554 whole entry): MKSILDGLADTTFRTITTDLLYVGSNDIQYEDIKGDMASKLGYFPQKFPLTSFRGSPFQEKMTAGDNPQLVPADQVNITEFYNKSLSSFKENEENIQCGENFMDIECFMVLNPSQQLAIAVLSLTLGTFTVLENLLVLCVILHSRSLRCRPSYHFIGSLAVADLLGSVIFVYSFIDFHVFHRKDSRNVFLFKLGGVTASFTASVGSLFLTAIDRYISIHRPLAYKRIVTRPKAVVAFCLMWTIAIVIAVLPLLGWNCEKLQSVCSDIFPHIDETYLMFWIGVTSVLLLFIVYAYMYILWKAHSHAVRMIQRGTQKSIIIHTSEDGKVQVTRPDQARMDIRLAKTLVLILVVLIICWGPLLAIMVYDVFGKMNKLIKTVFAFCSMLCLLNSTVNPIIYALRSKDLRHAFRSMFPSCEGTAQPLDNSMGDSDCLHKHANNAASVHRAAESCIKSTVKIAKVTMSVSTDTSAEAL

[7] = target: T2, N-arachidonyl glycine receptor (Homo sapiens); assay: Competitive antagonist activity at recombinant human GPR18 expressed in CHO cells assessed as inhibition of delta9-THC-induced beta-arrestin recruitment preincubated for 60 mins followed by delta9-THC addition for 90 mins measured for 1 sec by luminescence assay; type: functional, cell-based
[8] = target: T1, N-arachidonyl glycine receptor; assay: Agonist activity at recombinant full length human GPR18 expressed in CHO cells assessed as forskolin-stimulated cAMP accumulation after 10 mins by enzyme immunoassay; type: functional, cell-based
[9] = target: T1, N-arachidonyl glycine receptor; assay: Agonist activity at recombinant human GPR18 expressed in HEK293 cells assessed as induction of p44/42 MAPK phosphorylation after 5 mins by Western blot analysis; type: functional, cell-based

Row | SMILES | Ki (Cannabinoid receptor 2) | inhibition (Cannabinoid receptor 2) | IC50 [1] | Imax [2] | IC50 [3] | Imax [3] | %max [4] | EC50 [4] | EC50 [5] | %max [6] | Ki (Cannabinoid receptor 1) | Kb [7] | pKb [7] | inhibition (Cannabinoid receptor 1) | EC50 [8] | EC50 [9] | Imax (Cannabinoid receptor 1)
1 | O=C1/C(=C/c2cccc(OCCCCCCOc3ccc(Cl)cc3)c2)N=C2SCCCN12 | > 10 µM | 12% | 0.65 µM | 122% | > 10 µM | 37% | -15% | > 10 µM | > 10 µM | -37% | > 10 µM | 0.626 µM | 6.2 |  |  |  | 
2 | O=C1/C(=C/c2cccc(OCCCCCCOc3ccccc3Cl)c2)N=C2SCCCN12 | > 10 µM | 29% | > 10 µM | 41% | 3.41 µM | 79% | 0% | > 10 µM | > 10 µM | 10% | > 10 µM |  |  | 19% |  |  | 
3 | O=C1/C(=C/c2cccc(OCCCCCCCCOc3ccc(Cl)cc3)c2)N=C2SCCCN12 | > 10 µM | -3% | 1.15 µM | 124% | > 10 µM | 43% | -18% | > 10 µM | > 10 µM | -25% | > 10 µM |  |  | -9% |  |  | 
4 | CCCCC/C=C\C/C=C\C/C=C\C/C=C\CCCC(=O)NCC(=O)O [ARACHIDONOYL GLYCINE] |  |  |  |  |  |  |  |  |  |  |  |  |  |  | 0.02 µM | 0.044 µM | 
5 | O=C1/C(=C/c2cccc(OCCCc3ccccc3)c2)N=C2SCCCN12 | > 10 µM | 23% | 1.49 µM | 136% | 6.04 µM | 132% | -49% | > 10 µM | > 10 µM | -30% | > 10 µM |  |  | 11% |  |  | 
6 | Cc1ccc(OCCCCCCOc2cccc(/C=C3\N=C4SCCCN4C3=O)c2)cc1 | > 10 µM | 12% | 0.238 µM | 81% | 2.91 µM | 86% | 35% | > 10 µM | > 10 µM | -12% | > 10 µM |  |  | 9% |  |  | 
7 | CC(C)c1ccc(OCCCCCCOc2cccc(/C=C3\N=C4SCCCN4C3=O)c2)cc1 | > 10 µM | 46% | > 10 µM | 24% | > 10 µM | 32% | 45% | > 10 µM | > 10 µM | 15% | > 10 µM |  |  | 33% |  |  | 
8 | O=C1NC(=O)/C(=C/c2cccc(OCc3ccc(Cl)cc3)c2)S1 | > 10 µM | 41% | > 10 µM | -10% | > 10 µM | -1% | 22% | > 10 µM | > 10 µM | -1% | 5.04 µM |  |  |  |  |  | 67%
9 | Cc1ccc(CSC2=N/C(=C\c3cccc(OCc4ccc(Cl)cc4)c3)C(=O)N2)cc1 | > 10 µM | 22% | > 10 µM | 0% | > 10 µM | 48% | -12% | > 10 µM | > 10 µM | 4% | > 10 µM |  |  | 38% |  |  | 
10 | O=C1NC(=S)N/C1=C\c1cccc(OCc2ccc(Cl)cc2)c1 | > 10 µM | 19% | 33 µM | 165% | 32.4 µM | 118% | 5% | > 10 µM | > 10 µM | -14% | > 10 µM |  |  | 30% |  |  | 
